Experimental findings from paper PMC6658998, “Pharmacological characterization of the seven human NOX isoforms and their inhibitors” (Redox Biology, 2019) are described below.

The target in series [1] is T1, human NOX4 (Homo sapiens, UniProt Q9NPH5).
T1 sequence (Q9NPH5 1-578): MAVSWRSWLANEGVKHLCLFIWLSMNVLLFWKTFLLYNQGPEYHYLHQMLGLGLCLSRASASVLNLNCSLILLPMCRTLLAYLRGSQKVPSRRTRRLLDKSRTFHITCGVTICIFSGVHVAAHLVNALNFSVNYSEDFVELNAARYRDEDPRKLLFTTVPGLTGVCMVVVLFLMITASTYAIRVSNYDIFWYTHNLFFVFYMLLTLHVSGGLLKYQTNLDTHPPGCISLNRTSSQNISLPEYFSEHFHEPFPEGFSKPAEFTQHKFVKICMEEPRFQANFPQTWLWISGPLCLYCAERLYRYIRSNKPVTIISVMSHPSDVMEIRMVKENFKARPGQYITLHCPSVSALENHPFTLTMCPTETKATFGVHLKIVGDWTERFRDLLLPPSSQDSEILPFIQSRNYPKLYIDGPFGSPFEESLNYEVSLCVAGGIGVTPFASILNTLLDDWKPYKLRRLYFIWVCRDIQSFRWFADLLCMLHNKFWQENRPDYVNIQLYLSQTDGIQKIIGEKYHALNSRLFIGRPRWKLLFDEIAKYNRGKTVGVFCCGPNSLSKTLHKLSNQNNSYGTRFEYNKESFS
T1 sequence (P13498 1-195 partner): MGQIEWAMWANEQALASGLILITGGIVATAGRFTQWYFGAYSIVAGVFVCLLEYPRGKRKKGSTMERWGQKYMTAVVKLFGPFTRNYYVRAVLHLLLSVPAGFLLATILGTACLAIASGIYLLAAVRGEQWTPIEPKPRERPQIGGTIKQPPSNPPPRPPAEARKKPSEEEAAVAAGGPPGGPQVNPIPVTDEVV
Description: WST-1 O2•- detection in tetracycline-induced NOX4 HEK293 T-REx cells. Type of series: cell-based. Particulars: WST-1, tetracycline 1 μg/mL 24 h. For orientation: Tetrazolium assays rely on reduction of a dye to a coloured formazan, in cell work by metabolically active cells.

Another series has as its target T2, DUOX1 (Homo sapiens, UniProt Q9NRD9).
T2 construct: expressed in transfected cells; host or cells: HEK293, selected with G418 and zeocin
Briefly: Amplex Red/HRP H2O2 detection in DUOX1-expressing HEK293 cells. Type of series: cell-based.

The nature of series [2]: Cell-free CBA assay with 10 μM H2O2 (H2O2 scavenging). Particulars: 10 μM H2O2, 800 μM CBA.
The next series is described as follows: in vitro. Particulars: human.
The target of series [3] is T3, NOX2 (Homo sapiens, UniProt P04839).
T3 sequence (P04839 2-570 limits assumed): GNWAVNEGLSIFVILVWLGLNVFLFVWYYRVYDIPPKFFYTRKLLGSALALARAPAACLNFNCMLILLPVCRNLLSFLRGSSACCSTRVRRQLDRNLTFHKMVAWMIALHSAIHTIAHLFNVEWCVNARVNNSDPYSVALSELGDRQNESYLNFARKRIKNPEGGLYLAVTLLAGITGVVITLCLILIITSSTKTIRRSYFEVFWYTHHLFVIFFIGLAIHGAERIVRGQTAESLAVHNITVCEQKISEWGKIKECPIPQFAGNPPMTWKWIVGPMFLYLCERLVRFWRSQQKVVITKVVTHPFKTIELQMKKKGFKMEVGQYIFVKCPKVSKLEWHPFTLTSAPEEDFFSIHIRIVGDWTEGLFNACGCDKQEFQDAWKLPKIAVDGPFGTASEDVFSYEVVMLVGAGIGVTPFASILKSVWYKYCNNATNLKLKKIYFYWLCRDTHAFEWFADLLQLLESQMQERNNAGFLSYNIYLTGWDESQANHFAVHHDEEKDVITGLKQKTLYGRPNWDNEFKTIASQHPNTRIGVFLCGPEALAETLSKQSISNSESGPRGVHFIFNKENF
T3 sequence (P13498 1-195 partner): T1 sequence (P13498 1-195 partner)
Briefly: WST-1 O2•- detection in differentiated PLB-985 cells (NOX2).

Series [4] has as its target T3, NOX2. Briefly: Amplex Red/HRP H2O2 detection in differentiated PLB-985 cells (NOX2).
The target in series [5] is T1, human NOX4. Briefly: Amplex Red/HRP H2O2 detection in tetracycline-induced NOX4 HEK293 T-REx cells.
The target of series [6] is T4, NOX2 (Homo sapiens, UniProt P04839).
T4 sequence (P04839 2-570 limits assumed): T3 sequence (P04839 2-570 limits assumed)
Briefly: NOX2 activity in purified PLB-985 membranes (WST-1, CBA). It is filed as biochemical. The procedure:
PLB-985 (40 dishes 150 cm^2) were grown in suspension and differentiated by addition of 1.25% DMSO for 72 h. HEK293 cells expressing NOX5 (40 dishes 150 cm^2) were amplified until confluence and detached using trypsin-EDTA for 5 min followed by addition of 2 vol of pre-warmed complete growth media to inactivate trypsin. Collected cells were centrifuged at 4000 ×g for 10 min. Cells were washed with PBS and centrifuged at 1500 ×g for 10 min. The supernatant was discarded and the pellet was placed at −80 °C for at least 30 min. […] Samples were sonicated two times for 25 s (level 7, Branson Sonifier 250). Cell debris were removed by centrifugation at 800 ×g for 10 min at 4 °C. […] Protein concentration was determined with Bradford reagent using BSA as a standard. […]
NOX2 containing membranes were used at 10 μg/mL of proteins in a reaction mixture containing 90 nM recombinant RacQ61L, 45 nM recombinant p67Np47 N chimeric protein (consisting of a fusion of the N-termini of human p67phox [residues 1–210] and p47phox [residues 1–286]), 90 μM SDS, 1 μM FAD-Na2 and 1 mM WST-1 or 800 μM CBA in PBS. The reaction mixture was dispensed in 96-well plates (transparent for WST-1 absorbance, black for CBA fluorescence) at 80 μL/well and the plate was incubated for 5 min at 37 °C. […]

The mark [7] stands for this setting: Amplex red/HRP, PMA 0.1 μM and ionomycin 1 μM, read-out: IC50 DUOX1 (HEK) AR.

Structures are written as SMILES. Like-named read-outs stand apart in the source and are kept apart here. Bounds are passed on as bounds.

T2 sequence (Q9NRD9 22-1551): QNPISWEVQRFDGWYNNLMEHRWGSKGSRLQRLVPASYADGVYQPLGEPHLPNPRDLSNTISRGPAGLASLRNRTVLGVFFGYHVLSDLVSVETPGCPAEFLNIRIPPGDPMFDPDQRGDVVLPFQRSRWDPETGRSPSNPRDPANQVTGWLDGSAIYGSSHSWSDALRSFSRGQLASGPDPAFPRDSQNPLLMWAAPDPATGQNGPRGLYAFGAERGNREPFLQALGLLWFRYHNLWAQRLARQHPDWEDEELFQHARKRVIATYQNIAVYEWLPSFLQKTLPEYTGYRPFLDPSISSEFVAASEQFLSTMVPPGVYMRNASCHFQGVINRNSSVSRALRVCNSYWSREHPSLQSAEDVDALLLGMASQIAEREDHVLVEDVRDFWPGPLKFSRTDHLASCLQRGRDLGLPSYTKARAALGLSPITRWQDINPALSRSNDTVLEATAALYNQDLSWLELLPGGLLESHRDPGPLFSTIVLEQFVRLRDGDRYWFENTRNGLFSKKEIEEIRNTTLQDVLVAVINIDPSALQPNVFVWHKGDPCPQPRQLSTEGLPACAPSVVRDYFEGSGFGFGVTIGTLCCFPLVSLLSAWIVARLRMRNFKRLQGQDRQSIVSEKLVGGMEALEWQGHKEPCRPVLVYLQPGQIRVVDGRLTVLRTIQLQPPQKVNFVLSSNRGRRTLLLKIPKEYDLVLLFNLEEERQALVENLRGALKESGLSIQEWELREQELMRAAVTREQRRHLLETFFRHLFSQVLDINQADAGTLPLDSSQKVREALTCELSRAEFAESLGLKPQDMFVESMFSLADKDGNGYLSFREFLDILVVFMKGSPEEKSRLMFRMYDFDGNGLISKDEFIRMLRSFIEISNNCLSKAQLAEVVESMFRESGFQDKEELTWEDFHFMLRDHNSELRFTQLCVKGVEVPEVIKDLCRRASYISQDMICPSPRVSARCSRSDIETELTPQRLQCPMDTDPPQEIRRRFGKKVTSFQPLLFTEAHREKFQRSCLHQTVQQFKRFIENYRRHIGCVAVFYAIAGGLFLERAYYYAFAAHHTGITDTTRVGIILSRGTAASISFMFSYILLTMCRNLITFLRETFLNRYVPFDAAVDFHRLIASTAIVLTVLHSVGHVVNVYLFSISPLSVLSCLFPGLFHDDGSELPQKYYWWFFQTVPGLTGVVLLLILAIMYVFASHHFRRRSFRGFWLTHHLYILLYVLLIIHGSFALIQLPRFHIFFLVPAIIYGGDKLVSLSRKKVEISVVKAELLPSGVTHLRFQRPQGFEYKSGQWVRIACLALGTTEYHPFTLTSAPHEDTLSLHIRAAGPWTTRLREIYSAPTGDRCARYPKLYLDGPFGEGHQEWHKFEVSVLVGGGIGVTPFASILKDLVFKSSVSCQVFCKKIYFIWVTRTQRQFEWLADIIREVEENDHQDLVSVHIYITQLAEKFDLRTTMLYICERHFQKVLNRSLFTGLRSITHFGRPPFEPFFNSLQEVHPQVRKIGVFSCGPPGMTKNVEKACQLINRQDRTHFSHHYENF
T2 sequence (Q1HG43 whole entry partner): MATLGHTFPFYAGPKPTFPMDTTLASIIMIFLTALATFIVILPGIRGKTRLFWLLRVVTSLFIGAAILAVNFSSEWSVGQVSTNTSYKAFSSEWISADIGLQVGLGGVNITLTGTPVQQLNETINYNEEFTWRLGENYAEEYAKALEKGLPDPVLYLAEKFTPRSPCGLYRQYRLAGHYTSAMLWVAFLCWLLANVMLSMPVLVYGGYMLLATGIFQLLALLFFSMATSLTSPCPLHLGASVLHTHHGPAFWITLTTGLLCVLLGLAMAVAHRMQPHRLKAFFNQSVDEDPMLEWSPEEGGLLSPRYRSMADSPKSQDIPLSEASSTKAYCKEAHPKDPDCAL
Description for in vitro: The effect of the compounds on cell viability was obtained using the Calcein-AM assay. […] Cells suspensions were prepared in HBSS. Cells were preincubated at 50,000 cells/well with compounds for 10 min at room temperature before addition of 4 μM Calcein-AM. Then the plate was incubated at 37 °C for 1 h in the dark. Intracellular Calcein fluorescence was measured using Spectramax Paradigm (Molecular Devices) at 485 nm excitation and 520 nm emission.

As to `COc1cc(C(C)=O)ccc1O` [Apocynin, apocynin], the half-maximal inhibitory concentration (IC50) on human NOX4 [1], on DUOX1 (setting [7]), on NOX2 [3], at NOX2 [4] and at human NOX4 [5] was over 50 µM in each case. In series [2] (at high concentration), the “Effect on CBA signal (direct scavenging of H2O2)” value (“Effect on CBA signal” for short) was “inhibited the CBA signal”. The CC50 at 1 h in “in vitro” is over 50 µM.

With `COc1cc(C(C)=O)cc(-c2cc(C(C)=O)cc(OC)c2O)c1O` [Diapocynin, diapocynin], the 50% inhibitory concentration (IC50) (in general, the concentration that inhibits the measured activity by half) is over 50 µM against human NOX4 [1]; 13.6 µM on DUOX1 (setting [7]); over 50 µM at NOX2 [3]; 38.9 µM against NOX2 [4]; over 50 µM against human NOX4 [5]. Besides, the “Effect on CBA signal” value in series [2] (serial dilutions) was “inactive”. The same compound came in with a CC50 at 1 h in “in vitro” (PLB-985 cells) of over 50 µM.

On to `O=c1c2ccccc2[se]n1-c1ccccc1` [Ebselen, ebselen], for which the IC50 on DUOX1 (setting [7]) turned out to be 4.2 µM; at human NOX4 [5] it was 4.1 µM. The “Effect on CBA signal” value in series [2] (serial dilutions) is given as “inhibited the CBA signal”. On NOX2 [6] (compound 50 μM), the “Inhibition of NOX2-dependent signal in membranes” value is reported as “inhibited”. Moreover, in the series “in vitro” (PLB-985 cells), the CC50 at 1 h was determined as 3.1 µM.

In turn, `c1ccc2c(c1)[I+]c1ccccc1-2` [DPI, diphenylene iodonium chloride] gave an IC50 on DUOX1 of 1.4 µM. On NOX2 [6] (WST-1 / CBA, concentration not given), the “Inhibitory activity in NOX2 membrane assay” value is “potently inhibited”. Besides, in “in vitro”, the CC50 at 1 h is over 50 µM.

For the compound `Cc1c2c(=O)n(-c3ccccc3Cl)[nH]c2cc(=O)n1Cc1ccccn1` [GKT136901], the IC50 was over 50 µM against human NOX4 [1]; 5.9 µM on DUOX1 (setting [7]); over 50 µM against NOX2 [3]; 12.2 µM at NOX2 [4]; 2.7 µM at human NOX4 [5]. The “Effect on CBA signal” value in series [2] (serial dilutions) is on record as “not scavenging H2O2”. Moreover, the CC50 at 1 h in the series “in vitro” (PLB-985 cells) is over 50 µM.
